Laboratory results taken from patent publication US20220356163A1, “SMALL MOLECULE INHIBITORS OF Id PROTEINS” (MEMORIAL SLOAN KETTERING CANCER CENTER, priority 2019, published 2022).
Entries after “also recorded” stand apart in the source; their conditions may differ.

Assays:
Id3 = molecular target: T1, Id3 (Mus musculus, UniProt P41133); assay: Circular dichroism (CD) of Id3; assay type: binding; conditions: 0 or 100 μM
T1 construct: GST (cleaved yes); made in house; host or cells: E. coli Rosetta 2(DE3)
Protocol: Id protein purification. pGEV-PSP-mId1 and mId3 expression constructs were transformed into Rosetta 2(DE3) Competent Cells (Sigma Millipore) for protein expression. To produce recombinant GST-tagged protein, a 50 mL LB/Ampicillin (100 μg/m)+Chloramphenicol (25 μg/mL) culture was grown overnight at 37° C. Early the next day, the overnight culture was diluted 1:100 into 6 L LB/Ampicillin+Chloramphenicol and cultured at 37° C. for about four hours until OD600=0.7. Cultures were induced with 1 mM IPTG and incubated at 16° C. for 16-18 hours. Cells were harvested by centrifugation at 4000 rpm for 15 minutes at 4° C. and the pellet was resuspended in lysis buffer (50 mM Tris pH 8.0; 400 mM NaCl; 0.5 mM TCEP, Protease Inhibitor Cocktail) (25 mL/L of culture). To lyse the cells, Triton X-100 and lysozyme were added to 0.1% and 10 μg/mL respectively, incubated for 30 minutes on ice and sonicated. Lysates were spun at 17,000 rpm for 30 minutes at 4° C. and supernatants were filtered through a […] filter before incubation with glutathione sepharose for two hours at 4° C. The sepharose with bound protein was run through a polypropylene column and washed twice with 50 mL wash buffer (50 mM Tris pH 8.0; 400 mM NaCl) before protein was eluted with 10 mL 50 mM glutathione elution buffer, pH 8.0. […]

PDX-BR11 = assay: MTT assay, PDX-BR11; assay type: cell-based; conditions: 24 h, PDX-BR11, PDX cell line, read-out: IC50 value after 24 hours of treatment
Source text: The 4T1 murine mammary tumor cell line and nine breast cancer cell lines representing the major breast cancer subtypes (ER+, HER2+, and TNBC) including MDA-MB-157, MDA-MB-436, MDA-MB-231, MDA-MB-453, MDA-MB-361, BT-474, SK-BR-3, MCF-7 and T47-D will be grown in RPMI or DMEM (Dulbecco's Modified Eagle Medium) media supplemented with 10% FBS (fetal bovine serum), 1% penicillin-streptomycin and 1% L-Glutamine. Patient derived xenograft cell lines BR7, BR11, and IBT will be established directly from breast cancer bone metastases specimens surgically resected from patients with informed consent. BR7 and BR11 specimens will be obtained from ER positive (HER2 negative and PR negative) metastatic breast cancer patients, while the IBT specimen will be obtained from a metastatic, triple negative breast cancer patient. Fresh tumor tissues will be quickly washed with ice cold PBS and minced into about 1-3 mm pieces in MEM medium (without FBS) using sterile razor blades. […] The cells will be treated with either 100 μM DMSO, AGX51, or a compound of the present technology such as AGX-A. The cell morphology and growth will be monitored daily for 1 week by microscopy for changes in morphology or cell death. […] Absorbance will then measured at 570 nm using a plate reader (Synergy 2, BioTek). […]

Id proteins = assay: Western blot for Id1 in HCT116 and 4T1 cells (FIGS. 7C-7D); assay type: cell-based; conditions: 24 hours
Protocol: The IC50 is indicated. […] The IC50 is indicated. […] Laser-induced choroidal neovascularization (NV) was induced in mice and they were treated by intravitreal injection with DMSO, 1 or 5 μg AGX-A, or 1 or 5 μg AGX51. On day 14 the animals were euthanized and area of CNV was measured (** indicates p<0.01, *** indicates p<0.0001 by ANOVA, error bars show SEM).
Immunoblotting. For immunoblotting, cells were collected by trypsinization, washed with PBS and lysed in homogenization buffer (0.3 M sucrose, 10 mM Tris (pH 8.0), 400 mM sodium chloride, 3 mM magnesium chloride, 0.5% NP40/IGEPAL, 100 μg/mL Aprotinin+Protease inhibitor cocktail (Roche #11 836 153 001). Proteins were separated by SDS-PAGE, transferred to a membrane (LI-COR), probed with primary antibodies overnight at 4° C., and probed with secondary antibodies (LI-COR) for 1-2 hours at room temperature. Proteins were visualized using the LI-COR Odyssey Infrared Imaging detection system. The following primary antibodies were used Id1, Id2, Id3, Id4 (195-14, 9-2-8, 17-3, 82-12, respectively, all from Biocheck), Cyclin D1 (2978, Cell Signaling), Actin (A2066, Sigma), Tubulin (T4026, Sigma). Western blot quantification was carried out using channel 700 and channel 800 intensity data from Odyssey application software version 3.0.30 (LI-COR), subtracting blank values and normalizing to Tubulin.

T1 sequence (P41133 whole entry): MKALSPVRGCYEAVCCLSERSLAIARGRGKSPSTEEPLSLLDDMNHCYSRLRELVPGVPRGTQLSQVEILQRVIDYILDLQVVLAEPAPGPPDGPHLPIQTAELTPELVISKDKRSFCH

CCC(=O)N(CCC(c1ccc2c(c1)OCO2)c1ccccc1OC)Cc1ccccc1 (racemic) [AGX51, N-(3-(benzo[d][1,3]dioxol-5-yl)-3-(2-methoxyphenyl)propyl)-N-benzylpropionamide]
effect on Id3 secondary structure (CD) (Id3): small but reproducible effect
IC50 (PDX-BR11): 18.6 µM

COc1ccccc1C(CCNCc1ccccc1)c1ccc(OC(C)C)cc1 (stereo not drawn) [AGX-A, N-benzyl-3-(4-isopropoxyphenyl)-3-(2-methoxyphenyl)propan-1-anine]
Id protein levels in cells, concentration needed relative to AGX51 (Id proteins): reduced Id protein levels at lower concentrations than AGX51; also recorded: degraded Id proteins in cells at lower concentrations than AGX51
